Reference: patent publication US20230190887A1, “TARGETING G3BP AGGREGATION TO PREVENT NEURODEGENERATION” (priority 2019, published 2023)

Key:
E12.5 motor neurons = assay: MPP+-induced degeneration of motor neuron neurites (in vitro ALS model); assay type: cell-based, mouse; conditions: DIV7 E12.5 motor neurons, 100 μM MPP+ 16-18 hours, with 10 μM peptide
Experimental: Non-treated cultures were used as controls (FIG. 3A).
(A) Quantification of mitotoxin/neurotoxin MPP+-induced degeneration of DIV7 E12.5 motor neuron neurites after exposure of cultures to 100 μM MPP+ and either 10 μM 190-208 G3BP1 or 168-189 control peptide. As controls, neurons treated with solvents were used. (B) Representative images of G3BP1 (green) and NF-labeled (red) E12.5 motor neurons under control or after treatment with 100 μM MPP+ [scale bar=10 μm]. (C) distribution of sizes of endogenous G3BP1 aggregate per 100 μm neurite is shown as indicated bins from motor neurons cultures as treated in (B). (N≥80 neurites over three repetitions; by one-way ANOVA with Tukey HSD post-hoc). […] (D) Endogenous G3BP1 aggregate sizes per 100 μm neurite indicated as bins for motor neurons either untreated or treated with MPP+ alone or with addition of 10 μM 190-208 G3BP1 or 168-189 control peptide. […] (N≥90 over 3 cultures; by one-way ANOVA with Tukey HSD post-hoc)

C9ORF72 iPS-MN axons = assay: OPP labeling of local protein synthesis in iPS-MN axons; assay type: cell-based, human; conditions: axonal-exclusive application of 20 μM peptide
From the text: Formation of G3BP1-positive RNP condensates is strongly associated with repressed RNA translation, see Sahoo, P. K. et al. A Ca^2+ dependent switch activates axonal casein kinase 2α translation and drives G3BP1 granule disassembly for axon regeneration. Curr. Biol. 30, 4882-4895.e6 (2020), and altered mRNA transport, see Liao, Y. C. et al. RNA granules hitchhike on lysosomes for long-distance transport, using Annexin All as a molecular tether. Cell 179, 147-164.e20 (2019), leading to reduced protein synthesis, see Sahoo, P. K. et al. Axonal G3BP1 stress granule protein limits axonal mRNA translation and nerve regeneration. Nat. Commun. 9, 1-14 (2018). […] By quantifying OPP puncta density within in vitro NMJs, we identified robust protein synthesis within control co-cultures, while protein synthesis in TDPΔNLS NMJs was severely impaired (FIG. 19 3k-l). […] Unpaired-t-test, two-sided ****p<0.0001. c Images and d-f quantification of NFH, pTDP-43 and G3BP1 and their colocalization in C9ORF72 iPS-MN axons either treated or not with G3BP1 peptide. Quantifications of G3BP1 particle density (d), G3BP1-pTDP-43 coloc-particle density (e) and G3BP1-pTDP-43 coloc-particle size (f) from C9ORF72 and control iPS-MN axons, either treated or not with G3BP1 peptide. […] One-way-ANOVA with Holm-Sidak correction. […], ****p<0.0001. i Images and j quantification of OPP puncta density in control or ΔNLS MN axons. […]

[1] = tested on: TDPΔNLS MN-muscle co-cultures; assay: Co-culture contraction analysis; assay type: cell-based, mouse; conditions: 20 μM G3BP1 peptides in NMJ compartment
Experimental: Muscles in co-culture were kept in BA medium for 7 days. To aid NMJ formation, media in all compartments was then replaced to poor neurobasal (PNB) medium, which contained only 1% P/S and 1% Glutamax. Doxycycline was applied to TDP-43ΔNLS cultures only at the proximal MN compartment, in a concentration of 0.1 μg/mL, immediately after plating and throughout the entire experimental timeline. For TDPΔNLS recovery experiments (FIGS. 7-8), Doxycline was […] at the proximal MN compartment after 5 DIV, and the cultures were grown until 11 DIV. […] NMJ activity was assessed by quantifying the percent of innervated and contracting myocytes in co-culture as previously described36. Briefly, after 12 days in co-culture, phase-contrast time lapse image series were acquired at a frame rate of 25 frames-per-second (25 FPS) using a X20 air objective. During imaging, cultures were maintained in controlled temperature and CO2 environment. For obtaining contraction time traces, we used the “Time Series Analyzer V3” plugin for FIJI ImageJ V.2.0.0, and marked a region of interest on a small, high contrast and mobile region on the muscle, and then obtained the mean values for each time point.

YGNKKNNNQNNN-VVEPEPEPEPEPEPEPVSE [G3BP1 190-208 peptide]
MPP+-induced degeneration of motor neuron neurites (E12.5 motor neurons): prevents mitotoxin-induced degeneration | MPP+-induced degeneration of motor neuron neurites (E12.5 motor neurons; listed as G3BP1 190-208): protected against MPP+-induced degeneration | OPP puncta density (axonal translation) (C9ORF72 iPS-MN axons): reversed | percent of innervated muscles that contract [1]: reversed
